Data reported in patent US20120328696A1, “ANTI-PARKINSONIAN COMPOUND ACETYLSALICYLIC ACID MALTOL ESTER” (Hutecs Korea Pharmaceutical Co., Ltd., priority 2008, published 2012).

Tests used:
Type in all cases: in vivo
[1] = test system: GPx-1 (+/+)- and GPx-1 (−/−)-mice; test: MA-induced hyperthermia (rectal temperature); conditions: PKC inhibitors intra-striatal (doses of Table 1); MA 8 mg/kg i.p. x4; GPx-1 (+/+) and GPx-1 (−/−) mice
Description: (§1) The mice received four times of MA (8 mg/kg, ip) or saline as a 2 hr-time interval. Chemicals (AME, EBS, and PKC inhibitors) were administrated for 5 consecutive days (twice daily), and were given 2 times at 4 hr and 30 min before the first MA injection as shown in the experimental schedule. Animals were sacrificed at 4 hrs and 3 days after the final MA administration.
Rectal temperature was measured in the MA- or saline-treated mice. Measurement was performed at constant daytime intervals starting at 9:00 A.M. to avoid the influence on circadian variations. Rectal temperature was measured by inserting a thermometer probe lubricated with oil at least 3 cm into the rectum of the mice. To prevent sudden movements occurring especially in MA-treated mice, animals were gently handled with a wool glove while their tail was moved to allow the probe insertion. This was done to prevent the effects of restrain stress on rectal temperature. When the attempt to insert probe was not successful (i.e., sudden movements of the animal or the need to restrain the mouse), the animal was excluded from the groups.

[2] = test system: GPx-1 (+/+)- and GPx-1 (−/−)-mice; test: Rota-rod test after MA; conditions: PKC inhibitors intra-striatal (chelerythrine 0.2 ug/head, rottlerin 3.0 ug/head significant); MA 8 mg/kg i.p. x4; GPx-1 (+/+) and (−/−) mice
Description: as §1
The apparatus (Ugo Basile model 7650, Comerio, VA, Italy) consisted of a base platform and a rotating rod with a nonslippery surface. The rod was placed at a height of 15 cm from the base. The rod, 30 cm in length, was divided into 5 equal sections by 6 opaque disks (so that the subjects cannot be distracted by one another) To assess motor performance, the mice first trained on the apparatus 2 minutes at a constant rate of 4 r.p.m. per 30 s prior to the test. The test was performed 30 minutes after training and an accelerating paradigm was applied, starting from a rate of 4 r.p.m. to a maximum speed of 40 r.p.m., then the rotation speed was kept constant at 40 r.p.m. for a maximum of 300 s. The duration for which the animal could maintain balance on the rotating drum was measured as the rotarod latency, with a maximal cut-off time of 300 s.

[3] = test system: GPx-1 (+/+)- and GPx-1 (−/−)-mice; test: Locomotor activity after MA; conditions: PKC inhibitors intra-striatal (chelerythrine 0.2 ug/head, rottlerin 3.0 ug/head significant); MA 8 mg/kg i.p. x4; GPx-1 (+/+) and (−/−) mice
Description: as §1
Locomotor activity was measured for 30 min 3 days after the last MA administration using an automated video-tracking system (Noldus Information Technology, Wagenin, The Netherlands). Four test boxes (40×40×30 cm high) were operated simultaneously by an IBM computer. Mice were studied individually during locomotion in each test box, where they were adapted for 5 min before starting the experiment. […] The distance traveled in cm by the animals in horizontal locomotor activity was analyzed. Data were collected and analyzed between 09:00 and 17:00 h (Kim et al., 2001).

Compound: Cn1c2ccccc2c2c3c(c4c5ccccc5n(CCC#N)c4c21)CNC3=O [Go 6976]
- effect on MA-induced hyperthermia [1]: did not show any significant effect
- effect on MA-induced impairment in rota-rod performance [2]: did not affect MA-induced behavioral impairments
- effect on MA-induced impairment in locomotor activity [3]: did not affect MA-induced behavioral impairments

Compound: O=c1cc(O)cc(/C=C/c2ccc(O)c(O)c2)o1 [hispidin]
- effect on MA-induced hyperthermia [1]: did not show any significant effect
- effect on MA-induced impairment in rota-rod performance [2]: did not affect MA-induced behavioral impairments
- effect on MA-induced impairment in locomotor activity [3]: did not affect MA-induced behavioral impairments
